Test results: the NIST ThermoML archive (doi:10.1021/je7003758)

Experiment: xn = mol fraction of the nth substance listed
Details: 298.15 K, Liquid

ClCCCCCl [1,4-dichlorobutane] + CN1CCCC1=O
mass density [kg/m3]
Details	x2 = 0.1039	x2 = 0.2034	x2 = 0.3036	x2 = 0.402	x2 = 0.5025	x2 = 0.5968	x2 = 0.7003	x2 = 0.8008	x2 = 0.8971
100 kPa	1123.8	1114.2	1104.3	1094.4	1084	1073.9	1062.7	1051.4	1040.2
500 kPa	1124.1	1114.6	1104.6	1094.7	1084.2	1074.2	1062.9	1051.6	1040.4
1000 kPa	1124.5	1114.9	1104.9	1095	1084.5	1074.5	1063.2	1051.9	1040.7
1500 kPa	1124.9	1115.2	1105.3	1095.3	1084.8	1074.8	1063.6	1052.2	1041
2000 kPa	1125.2	1115.6	1105.7	1095.7	1085.2	1075.1	1063.8	1052.5	1041.3
2500 kPa	1125.5	1115.9	1106	1096	1085.5	1075.4	1064.1	1052.8	1041.6
2900 kPa	–	–	1106.3	–	–	–	–	–	–
3000 kPa	1125.9	1116.3	–	1096.3	1085.8	1075.7	1064.4	1053	1041.8
3500 kPa	1126.3	1116.6	1106.6	1096.7	1086.1	1076	1064.7	1053.4	1042.1
4000 kPa	1126.7	1117	1107	1097	1086.4	1076.4	1065	1053.6	1042.3
4500 kPa	1127	1117.3	1107.4	1097.3	1086.8	1076.6	1065.3	1053.9	1042.7
4900 kPa	1127.3	–	–	–	–	1076.9	–	–	–
5000 kPa	–	1117.7	1107.7	1097.6	1087.1	–	1065.6	1054.2	1042.9
5500 kPa	1127.7	1118	1108	1098	1087.4	1077.2	1065.9	1054.4	1043.1
5900 kPa	1128.1	–	–	–	1087.7	–	–	–	–
6000 kPa	–	1118.4	1108.3	1098.3	–	1077.6	1066.2	1054.8	1043.5
6500 kPa	1128.4	1118.8	1108.7	1098.6	1088	1077.8	1066.5	1055	1043.7
7000 kPa	1128.8	1119.1	1109	1099	1088.4	1078.2	1066.8	1055.3	1044
7400 kPa	–	–	–	–	–	–	–	–	1044.2
7500 kPa	–	1119.5	1109.4	1099.3	1088.6	1078.5	1067.1	1055.6	–
7600 kPa	1129.2	–	–	–	–	–	–	–	–
7900 kPa	–	–	–	–	1089	–	–	–	–
8000 kPa	1129.5	1119.8	1109.7	1099.6	–	1078.8	1067.4	1055.9	1044.5
8400 kPa	1129.8	–	–	–	–	–	–	–	–
8500 kPa	–	1120.1	1110.1	1099.9	1089.3	1079.1	1067.6	1056.2	1044.8
8900 kPa	1130.2	–	–	–	–	–	–	–	–
9000 kPa	–	1120.5	1110.4	1100.3	1089.6	1079.4	1068	1056.4	1045.1
9400 kPa	–	–	–	–	–	–	–	–	1045.3
9500 kPa	1130.6	1120.8	1110.7	1100.3	1089.9	1079.7	1068.2	1056.7	–
10000 kPa	1131	1121.3	1111.1	1101	1090.3	1080	1068.6	1057.1	1045.6
10500 kPa	1131.4	1121.6	1111.4	1101.3	1090.6	1080.3	1068.9	1057.3	1045.9
11000 kPa	1131.7	1122	1111.8	1101.6	1090.9	1080.6	1069.2	1057.6	1046.1
11500 kPa	1132.1	1122.3	1112.1	1101.9	1091.2	1080.9	1069.4	1057.9	1046.4
11900 kPa	–	–	–	–	–	–	–	–	1046.6
12000 kPa	1132.5	1122.6	1112.4	1102.2	1091.6	1081.2	1069.7	1058.2	–
12400 kPa	–	–	–	–	–	–	–	–	1046.9
12500 kPa	1132.8	1122.9	1112.8	1102.6	1091.9	1081.5	1070	1058.4	–
12900 kPa	–	–	–	–	1092.2	–	–	–	–
13000 kPa	1133.1	1123.3	1113.1	1102.9	–	1081.8	1070.3	1058.7	1047.2
13400 kPa	–	–	–	–	–	–	–	1059	–
13500 kPa	1133.5	1123.6	1113.4	1103.2	1092.5	1082.1	1070.5	–	1047.4
13900 kPa	–	–	1113.7	–	–	–	–	–	–
14000 kPa	1133.8	1124	–	1103.5	1092.8	1082.4	1070.9	1059.2	1047.7
14400 kPa	–	–	–	–	–	–	1071.1	1059.5	–
14500 kPa	1134.2	1124.3	1114	1103.8	1093.1	1082.6	–	–	1048
14900 kPa	–	–	–	–	1093.3	–	–	–	–
15000 kPa	1134.5	1124.7	1114.4	1104.1	–	1083	1071.5	1059.7	1048.3
15400 kPa	–	–	–	–	1093.6	–	–	–	–
15500 kPa	1134.8	1125	1114.7	1104.4	–	1083.3	1071.7	1060	1048.6
15900 kPa	–	–	–	–	–	–	–	–	1048.8
16000 kPa	1135.2	1125.3	1115.1	1104.8	1094	1083.5	1072	1060.3	–
16400 kPa	–	–	–	1105	–	–	–	–	–
16500 kPa	1135.5	1125.6	1115.4	–	1094.2	1083.8	1072.2	1060.6	1049
16900 kPa	–	–	1115.6	–	–	–	–	–	–
17000 kPa	1135.9	1126	–	1105.4	1094.5	1084.1	1072.5	1060.8	1049.3
17500 kPa	1136.2	1126.3	1116	1105.7	1094.8	1084.4	1072.8	1061.1	1049.5
18000 kPa	1136.5	1126.6	1116.3	1106	1095.1	1084.7	1073.1	1061.3	1049.8
18500 kPa	1136.9	1126.9	1116.6	1106.2	1095.4	1085	1073.3	1061.6	1050.1
19000 kPa	1137.3	1127.3	1117	1106.6	1095.8	1085.3	1073.7	1061.9	1050.3
19500 kPa	1137.6	1127.6	1117.3	1106.9	1096	1085.6	1074	1062.2	1050.6
20000 kPa	1138	1128	1117.7	1107.4	1096.5	1086	1074.5	1062.4	1050.9
